The source of these data is patent US9334285B2, “Aldosterone synthase inhibitors” (Boehringer Ingelheim International GmbH, priority 2014, dated 2016).

Like-named read-outs stand apart in the source and are kept apart here.

Assay [1] deals with T1, aldosterone synthase (CYP11B2) (Macaca fascicularis, UniProt A0A2K5UPL9).
T1 construct: employ cynomolgus adrenal gland mitochondria as the source of aldosterone synthase (CYP11B2); from tissue; host or cells: cynomolgus monkey adrenal gland mitochondria
T1 sequence (A0A2K5UPL9 1-503): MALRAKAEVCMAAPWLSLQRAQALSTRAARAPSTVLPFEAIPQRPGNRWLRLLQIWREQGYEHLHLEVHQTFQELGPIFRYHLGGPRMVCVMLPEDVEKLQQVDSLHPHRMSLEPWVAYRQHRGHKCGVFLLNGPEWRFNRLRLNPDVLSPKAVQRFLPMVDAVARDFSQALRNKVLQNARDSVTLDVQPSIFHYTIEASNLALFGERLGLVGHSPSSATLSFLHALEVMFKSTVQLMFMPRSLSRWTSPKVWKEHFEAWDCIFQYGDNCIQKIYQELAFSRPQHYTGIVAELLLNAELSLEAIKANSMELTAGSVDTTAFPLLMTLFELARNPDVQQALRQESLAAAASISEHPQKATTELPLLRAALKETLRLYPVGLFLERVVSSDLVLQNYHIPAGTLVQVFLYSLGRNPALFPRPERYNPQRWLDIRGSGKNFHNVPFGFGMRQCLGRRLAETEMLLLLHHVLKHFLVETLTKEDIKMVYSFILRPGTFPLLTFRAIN
Kind of assay: Inhibition of aldosterone synthase, cynomolgus adrenal mitochondria, aldosterone quantified by mass spectrometry. It counts as biochemical, cynomolgus monkey. The conditions noted are these: 2 μM corticosterone, 90 minutes at 37° C. How it is done:
The aldosterone synthase and cortisol synthase inhibition assays employ cynomolgus adrenal gland mitochondria as the source of aldosterone synthase (CYP11B2) and cortisol synthase (CYP11B1). […] One unit of CYP11B2 and CYP11B1 activity in these preparations is defined as the amount of enzyme that generates 1 pmol of product in one hour under the conditions described.
The compounds of the invention may be evaluated for aldosterone synthase inhibition by the following assay:
Assays are performed in 96-well format in a final volume of 60 microL/well, containing 100 mM potassium phosphate, pH 7.4, 1% (v/v) DMSO, and additionally, 2 μM of corticosterone and 50 units of CYP11B2 activity. Reactions are started by the addition of NADPH to 1 mM and allowed to proceed for 90 minutes at 37° C. Reactions are terminated by the addition of 60 μL of MeCN containing an internal standard for mass spectrometry. One hundred microliters are then transferred to a glass filter plate and centrifuged at 570×g for 5 minutes and the filtrate is collected. Reaction product aldosterone is quantified by mass spectrometry. To determine the assay blank value (0% activity), NADPH is omitted from some reactions.
Dose dependent inhibition is quantified by the inclusion of compound at various concentrations. Maximum activity (100%) is defined by reactions containing NADPH, but without compound.

Assay [2] has as its target cortisol synthase (CYP11B1) (Macaca fascicularis, UniProt A0A2K5ULY1). Kind of assay: Inhibition of cortisol synthesis, cynomolgus adrenal mitochondria, 11-deoxycortisol as substrate. The following applies: 150 units of CYP11B1, 11-deoxycortisol as substrate. It counts as biochemical, cynomolgus monkey. The protocol:
The aldosterone synthase and cortisol synthase inhibition assays employ cynomolgus adrenal gland mitochondria as the source of aldosterone synthase (CYP11B2) and cortisol synthase (CYP11B1). Mitochondria are prepared from frozen cynomolgus monkey adrenal glands according to Method A described in by J. D. McGarry et al. (Biochem. J., 1983, 214, 21-28), with a final resuspension in the AT buffer described in R. Yamaguchi et al. (Cell Death and Differentiation, 2007, 14, 616-624), frozen as aliquots in liquid nitrogen and stored at −80° C. until use. One unit of CYP11B2 and CYP11B1 activity in these preparations is defined as the amount of enzyme that generates 1 pmol of product in one hour under the conditions described.
Assays are performed as for aldosterone synthase except for the use of 150 units of CYP11B1, 11-deoxycortisol as substrate and cortisol measured as product.

[3] abbreviates: Cortisol Inhibition IC50, cynomolgus adrenal mitochondria.
Setting [4] is: cynomolgus adrenal mitochondria, read-out: Cortisol Inhibition IC50.

With `COC(=O)C1(C)Cc2ncn(-c3ccc(C#N)c(Cl)c3)c2C(=O)O1` (centres unmarked) [Compound 45, 3-(3-Chloro-4-cyano-phenyl)-6-methyl-4-oxo-3,4,6,7-tetrahydro-pyrano[3,4-d]imidazole-6-carboxylic acid methyl ester], the IC50 came out at 28 nM in assay [1] and 1.1 µM in assay [2] (setting [3]).
`CC1(CO)Cc2ncn(-c3cccc(Cl)c3F)c2C(=O)O1` (single isomer, unassigned) [Compound 35B, 3-(3-chloro-2-fluorophenyl)-6-(hydroxymethyl)-6-methyl-3H,4H,6H,7H-pyrano[3,4-d]imidazol-4-one]: the IC50 in assay [1] is 620 nM; in assay [2] (setting [4]), greater than 30 µM.
As for `CC1(C)Cc2ncn(-c3ccc(Cl)c(C#N)c3)c2C(=O)O1` [Compound 12, 2-chloro-5-{6,6-dimethyl-4-oxo-3H,4H,6H,7H-pyrano[3,4-d]imidazol-3-yl}benzonitrile], the IC50 was 290 nM in assay [1] and 24 µM in assay [2] (setting [4]).
As to `CC1Cc2ncn(-c3ccc(C#N)c(Cl)c3)c2C(=O)O1` (single isomer, unassigned) [Compound 15B, 2-chloro-4-[6-methyl-4-oxo-3H,4H,6H,7H-pyrano[3,4-d]imidazol-3-yl]benzonitrile], the IC50 in assay [1] was found to be 12 nM; in assay [2] (setting [3]), 6.4 µM.
On to `CC1(CO)Cc2ncn(-c3ccc4c(c3)CCO4)c2C(=O)O1` (single isomer, unassigned) [Compound 42A, 3-(2,3-Dihydro-benzofuran-5-yl)-6-hydroxymethyl-6-methyl-6,7-dihydro-3H-pyrano[3,4-d]imidazol-4-one], for which the results for the concentration for half-maximal inhibition (IC50) in assay [1] and in assay [2] (setting [4]) were 210 nM and greater than 30 µM, respectively.
As to `N#Cc1ccc(-n2cnc3c2C(=O)OCC3)cc1Cl` [Compound 22, 2-chloro-4-{4-oxo-3H,4H,6H,7H-pyrano[3,4-d]imidazol-3-yl}benzonitrile], the concentration for half-maximal inhibition (IC50) was determined as 25 nM in assay [1] and 18 µM in assay [2] (setting [3]).
As to `CC1(CO)Cc2ncn(-c3cccc(F)c3Cl)c2C(=O)O1` (single isomer, unassigned) [Compound 34A, 3-(2-chloro-3-fluorophenyl)-6-(hydroxymethyl)-6-methyl-3H,4H,6H,7H-pyrano[3,4-d]imidazol-4-one], the IC50 was 870 nM in assay [1] and greater than 30 µM in assay [2] (setting [4]).
With `CC1(CO)Cc2ncn(-c3ccc(C#N)cc3)c2C(=O)O1` (centres unmarked) [Compound 37, 4-[6-(hydroxymethyl)-6-methyl-4-oxo-3H,4H,6H,7H-pyrano[3,4-d]imidazol-3-yl]benzonitrile], the results for the IC50 in assay [1] and in assay [2] (setting [4]) were 210 nM and 34 µM, respectively.
As to `CC1Cc2ncn(-c3ccc(Cl)c(Cl)c3)c2C(=O)O1` (centres unmarked) [Compound 41, 3-(3,4-dichlorophenyl)-6-methyl-3H,4H,6H,7H-pyrano[3,4-d]imidazol-4-one], the IC50 in assay [1] was determined as 8.6 nM; in assay [2] (setting [4]) it was 6 µM.
Consider `O=C1OCCc2ncn(-c3ccc(Cl)cc3)c21` [Compound 20, 3-(4-chlorophenyl)-3H,4H,6H,7H-pyrano[3,4-d]imidazol-4-one], for which the IC50 stood at 470 nM in assay [1] and 65 µM in assay [2] (setting [4]).
`CN1C(=O)CCc2cc(-n3cnc4c3C(=O)OC(C)(CO)C4)ccc21` (single isomer, unassigned) [Compound 40B, 6-[6-(hydroxymethyl)-6-methyl-4-oxo-3H,4H,6H,7H-pyrano[3,4-d]imidazol-3-yl]-1-methyl-1,2,3,4-tetrahydroquinolin-2-one]: the IC50 in assay [1] is 460 nM; in assay [2] (setting [4]), greater than 30 µM.
Regarding `CC1(CO)Cc2ncn(C3Cc4ccccc4C3)c2C(=O)O1` (centres unmarked) [Compound 27, 3-(2,3-dihydro-1H-inden-2-yl)-6-(hydroxymethyl)-6-methyl-3H,4H,6H,7H-pyrano[3,4-d]imidazol-4-one], the IC50 is 220 nM in assay [1] and greater than 30 µM in assay [2] (setting [4]).
Turning to `CC1(C)Cc2ncn(-c3ccc(Cl)c(Cl)c3)c2C(=O)O1` [Compound 4, 3-(3,4-dichlorophenyl)-6,6-dimethyl-3H,4H,6H,7H-pyrano[3,4-d]imidazol-4-one], the IC50 in assay [1] was found to be 8.4 nM; in assay [2] (setting [4]), 1.2 µM.
The like results for `CN1C(=O)CCc2cc(-n3cnc4c3C(=O)OC(C)(CO)C4)ccc21` (single isomer, unassigned) [Compound 40A, 6-[6-(hydroxymethyl)-6-methyl-4-oxo-3H,4H,6H,7H-pyrano[3,4-d]imidazol-3-yl]-1-methyl-1,2,3,4-tetrahydroquinolin-2-one] were, in that order, 160 nM and greater than 30 µM.
On to `CN(C)C(=O)C1(C)Cc2ncn(-c3ccc(C#N)c(Cl)c3)c2C(=O)O1` (centres unmarked) [Compound 46, 3-(3-chloro-4-cyano-phenyl)-6-methyl-4-oxo-3,4,6,7-tetrahydro-pyrano[3,4-d]imidazole-6-carboxylic acid dimethylamide], for which the IC50 in assay [1] came out at 89 nM; in assay [2] (setting [3]) it was 13 µM.
As for `CC1(C)Cc2ncn(-c3cccc(F)c3Cl)c2C(=O)O1` [Compound 7, 3-(2-chloro-3-fluorophenyl)-6,6-dimethyl-3H,4H,6H,7H-pyrano[3,4-d]imidazol-4-one], the IC50 in assay [1] was 50 nM; in assay [2] (setting [4]), 6.8 µM.
In the case of `CC1(C)Cc2ncn(-c3ccc(F)cc3)c2C(=O)O1` [Compound 14, 3-(4-fluorophenyl)-6,6-dimethyl-3H,4H,6H,7H-pyrano[3,4-d]imidazol-4-one], the IC50 in assay [1] was determined as 130 nM; in assay [2] (setting [4]) it was 13 µM.
With `CC1(C)Cc2ncn(-c3ccccc3)c2C(=O)O1` [Compound 17, 6,6-dimethyl-3-phenyl-3H,4H,6H,7H-pyrano[3,4-d]imidazol-4-one], the IC50 stood at 390 nM in assay [1] and 61 µM in assay [2] (setting [4]).
The like results for `O=C1OCCc2ncn(-c3ccc(Cl)c(Cl)c3)c21` [Compound 23, 3-(3,4-dichlorophenyl)-3H,4H,6H,7H-pyrano[3,4-d]imidazol-4-one] were, in that order, 14 nM and 10 µM.
Consider `CC1(C)Cc2ncn(C3Cc4ccccc4C3)c2C(=O)O1` [Compound 26], for which the IC50 in assay [1] is 64 nM; in assay [2] (setting [4]) it was 25 µM.
In the case of `O=C1OCCc2ncn(C3Cc4ccccc4C3)c21` [Compound 25, 3-(2,3-dihydro-1H-inden-2-yl)-3H,4H,6H,7H-pyrano[3,4-d]imidazol-4-one], the results for the IC50 in assay [1] and in assay [2] (setting [3]) were 500 nM and greater than 30 µM, respectively.
`CC(=O)OCC1(C)Cc2ncn(-c3ccc(C#N)c(Cl)c3)c2C(=O)O1` (centres unmarked) [Compound 32, [3-(3-chloro-4-cyanophenyl)-6-methyl-4-oxo-3H,4H,6H,7H-pyrano[3,4-d]imidazol-6-yl]methyl acetate]: the values for the IC50 in assay [1] and in assay [2] (setting [3]) were 36 nM and 6.5 µM, respectively.
As for `CC1(CO)Cc2ncn(-c3ccc(Cl)cc3)c2C(=O)O1` (single isomer, unassigned) [Compound 38B, 3-(4-chlorophenyl)-6-(hydroxymethyl)-6-methyl-3H,4H,6H,7H-pyrano[3,4-d]imidazol-4-one], the IC50 was 390 nM in assay [1] and 36 µM in assay [2] (setting [4]).
`O=C1OC(CO)Cc2ncn(-c3ccc(Cl)cc3)c21` (centres unmarked) [Compound 36, 3-(4-chlorophenyl)-6-(hydroxymethyl)-3H,4H,6H,7H-pyrano[3,4-d]imidazol-4-one]: the figures for the IC50 in assay [1] and in assay [2] (setting [4]) were 540 nM and greater than 100 µM, respectively.
In the case of `CC(C)(C)OC(=O)NCC1(C)Cc2ncn(-c3ccc(F)c(F)c3)c2C(=O)O1` (centres unmarked) [Compound 1, tert-butyl N{[3-(3,4-difluorophenyl)-6-methyl-4-oxo-3H,4H,6H,7H-pyrano[3,4-d]imidazol-6-yl]methyl}carbamate], the values for the IC50 in assay [1] and in assay [2] (setting [4]) were 55 nM and 2.3 µM, respectively.

For orientation: IC50 means the midpoint of a concentration-inhibition curve.
